Assay results as given in US7300941B2, “Non-imidazole compounds” (Schering Corporation, priority 2000, dated 2007).
Values joined by “and” are separate entries in the source; they are usually repeats but may differ in a detail not shown here. Equal values may be shown once.

What follows are compounds tested against T1, H3 receptors (Cavia porcellus, UniProt Q9JI35) (assay: H3-Receptor Binding Assay). Settings: guinea pig brain membranes; 3 nM [3H]R-α-methyl histamine or 3 nM [3H]Nα-methyl histamine; 30° C., 30 min.
T1 construct: The brain tissue was homogenized with a solution of 50 mM Tris, pH 7.5; from tissue; host or cells: guinea pig brain membranes
Experimental: H3-Receptor Binding Assay
The source of the H3 receptors in this experiment was guinea pig brain. The animals weighed 400-600 g. The brain tissue was homogenized with a solution of 50 mM Tris, pH 7.5. The final concentration of tissue in the homogenization buffer was 10% w/v. The homogenates were centrifuged at 1,000×g for 10 min. in order to remove clumps of tissue and debris. The resulting supernatants were then centrifuged at 50,000×g for 20 min. in order to sediment the membranes, which were next washed three times in homogenization buffer (50,000×g for 20 min. each). The membranes were frozen and stored at −70° C. until needed.
All compounds to be tested were dissolved in DMSO and then diluted into the binding buffer (50 mM Tris, pH 7.5) such that the final concentration was 2 μg/ml with 0.1% DMSO. Membranes were then added (400 μg of protein) to the reaction tubes. The reaction was started by the addition of 3 nM [^3H]R-α-methyl histamine (8.8 Ci/mmol) or 3 nM [^3H]N^α-methyl histamine (80 Ci/mmol) and continued under incubation at 30° C. for 30 min. Bound ligand was separated from unbound ligand by filtration, and the amount of radioactive ligand bound to the membranes was quantitated by liquid scintillation spectrometry. All incubations were performed in duplicate and the standard error was always less than 10%. Compounds that inhibited more than 70% of the specific binding of radioactive ligand to the receptor were serially diluted to determine a Ki (nM).

T1 sequence (Q9JI35 whole entry): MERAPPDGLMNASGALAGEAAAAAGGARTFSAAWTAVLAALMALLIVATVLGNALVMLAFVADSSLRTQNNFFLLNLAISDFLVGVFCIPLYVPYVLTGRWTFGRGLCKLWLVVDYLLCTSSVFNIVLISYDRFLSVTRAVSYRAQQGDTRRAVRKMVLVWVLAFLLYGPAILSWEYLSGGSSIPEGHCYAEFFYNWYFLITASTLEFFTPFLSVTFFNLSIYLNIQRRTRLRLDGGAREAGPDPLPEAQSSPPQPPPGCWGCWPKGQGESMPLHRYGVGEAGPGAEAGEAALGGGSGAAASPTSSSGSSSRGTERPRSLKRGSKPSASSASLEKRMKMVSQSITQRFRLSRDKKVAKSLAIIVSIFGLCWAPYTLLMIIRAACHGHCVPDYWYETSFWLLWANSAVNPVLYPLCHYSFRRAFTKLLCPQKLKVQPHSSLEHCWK

Ki	Compound
0.25 to 33 nM	CON=C(c1ccc(Cl)cc1)C1CCN(C(=O)N2CCN(Cc3ccnc(N)c3)CC2)CC1 [Compound 215]
1.05 to 9.75 nM	Nc1cc(CN2CCC(C(=O)N3CCC(/C(=N\OCC(F)(F)F)c4ncccc4F)CC3)CC2)ccn1 [Compound 320]
0.25 to 33 nM and 0.25 to 16 nM and 1.05 to 9.75 nM	CO/N=C(/c1ccccn1)C1CCN(C(=O)C2CCN(Cc3cnc(N)nc3)CC2)CC1 [Compound 287]
0.25 to 33 nM and 0.25 to 16 nM	CON=C(c1ccccn1)C1CCN(C(=O)C2CCN(Cc3ccnc(N)c3)CC2)CC1 [Compound 31]
0.25 to 33 nM	CON=C(c1ccc[n+]([O-])c1)C1CCN(C(=O)C2CCN(Cc3ccnc(N)c3)CC2)CC1 [Compound 92]
0.25 to 33 nM	CON=C(c1ccsc1)C1CCN(C(=O)C2CCN(Cc3ccnc(N)c3)CC2)CC1 [Compound 235]
0.25 to 33 nM	CON=C(c1ccccc1F)C1CCN(C(=O)C2CCN(Cc3ccnc(N)c3)CC2)CC1 [Compound 219]
0.25 to 33 nM	CON=C(c1ccc(Cl)cc1Cl)C1CCN(C(=O)C2CCN(C(C)c3ccnc(N)c3)CC2)CC1 (stereo not drawn) [Compound 233]
0.25 to 33 nM and 0.25 to 16 nM	Nc1cc(CN2CCC(C(=O)N3CCC(C(=O)c4ccc5ccccc5n4)CC3)CC2)ccn1 [Compound 312]
0.25 to 33 nM	CO/N=C(\c1ccc(Cl)cc1)C1CCN(C(=O)C2CCN(Cc3ccnc(N)c3)CC2)CC1 [Compound 224]
0.25 to 33 nM	CON=C(c1ccccc1)C1CCN(C(=O)C2CCN(Cc3ccnc(N)c3)CC2)CC1 [Compound 238]
0.25 to 33 nM	CCON=C(c1ccccn1)C1CCN(C(=O)C2CCN(Cc3ccnc(N)c3)CC2)CC1 [Compound 246]
0.25 to 33 nM and 0.25 to 16 nM	CO/N=C(/c1ccccn1)C1CN(C(=O)C2CCN(Cc3ccnc(N)c3)CC2)C1 [Compound 301]
0.25 to 33 nM	CON=C(c1cccc(S(=O)(=O)N(C)C)c1)C1CCN(C(=O)C2CCN(Cc3ccnc(N)c3)CC2)CC1 [Compound 251]
0.25 to 33 nM	CON=C(c1cc(Cl)cc(Cl)c1)C1CCN(C(=O)C2CCN(Cc3ccnc(N)c3)CC2)CC1 [Compound 218]
0.25 to 33 nM and 0.25 to 16 nM and 1.05 to 9.75 nM	CO/N=C(/c1csc(C)n1)C1CCN(C(=O)C2CCN(Cc3ccnc(N)c3)CC2)CC1 [Compound 253A]
0.25 to 33 nM and 0.25 to 16 nM and 1.05 to 9.75 nM	CO/N=C(/c1ccccn1)C1CCN(C(=O)C2CCN([C@@H](C)c3ccnc(N)c3)CC2)CC1 [Compound 54]
0.25 to 33 nM and 0.25 to 16 nM	Nc1cc(CN2CCC(C(=O)N3CCC(C(=O)c4ccccn4)CC3)CC2)ccn1 [Compound 30]
0.25 to 33 nM and 0.25 to 16 nM	CON=C(C1CCCCC1)C1CCN(C(=O)C2CCN(Cc3ccnc(N)c3)CC2)CC1 [Compound 309]
0.25 to 33 nM	CCON=C(c1ccc(F)cc1F)C1CCN(C(=O)C2CCN(Cc3ccnc(N)c3)CC2)CC1 [Compound 229]
0.25 to 33 nM	CON=C(c1ccccn1)C1CCN(C(=O)C2CCN(C(C)c3ccnc(N)c3)CC2)CC1 (stereo not drawn) [Compound 53]

Ki	Compound
0.25 to 33 nM and 0.25 to 16 nM	CON=C(c1ccccn1)C1CCN(C(=O)C2CCN(Cc3ccncc3N)CC2)CC1 [Compound 296]
0.25 to 33 nM and 0.25 to 16 nM and 1.05 to 9.75 nM	CO/N=C(/c1ccccn1)C1CCN(C(=O)C2CCN([C@H](C)c3ccnc(N)c3)CC2)CC1 [Compound 55]
0.25 to 33 nM and 0.25 to 16 nM	CO/N=C(\c1ccccn1)C1CCN(C(=O)C2CCN(Cc3ccnc(N)c3)CC2)CC1 [Compound 33]
0.25 to 33 nM	CCON=C(c1ccc(Cl)cc1)C1CCN(C(=O)C2CCN(Cc3ccnc(N)c3)CC2)CC1 [Compound 212]
0.25 to 33 nM and 0.25 to 16 nM	Nc1cc(CN2CCC(C(=O)N3CCC(C(=NO)c4ccccn4)CC3)CC2)ccn1 [Compound 237]
0.25 to 33 nM and 0.25 to 16 nM	CO/N=C(/c1ccc(Cl)cc1)C1CCN(C(=O)C2CCN(Cc3ccnc(N)c3)CC2)CC1 [Compound 225]
0.25 to 33 nM	CON=C(c1ccc(Cl)cc1)C1CCN(C(=O)C2(O)CCN(Cc3ccnc(N)c3)CC2)CC1 [Compound 59]
0.25 to 33 nM	CO/N=C(\c1ccccn1)C1CCN(C(=O)C2CCN([C@H](C)c3ccnc(N)c3)CC2)CC1 [Compound 57A]
0.25 to 33 nM and 0.25 to 16 nM and 0.83 nM	CO/N=C(/c1ccccn1)C1CCN(C(=O)C2CCN(Cc3ccnc(N)c3)CC2)CC1 [Compound 32]
0.25 to 33 nM	CON=C(c1csc(C)n1)C1CCN(C(=O)C2CCN(Cc3ccnc(N)c3)CC2)CC1 [Compound 253]
0.25 to 33 nM	CON=C(c1ccc(Cl)cc1)C1CCN(C(=O)C2CCN(C(C)c3ccnc(N)c3)CC2)CC1 (stereo not drawn) [Compound 227]
0.25 to 33 nM	CON=C(c1ncccn1)C1CCN(C(=O)C2CCN(Cc3ccnc(N)c3)CC2)CC1 [Compound 248]
0.25 to 33 nM	CO/N=C(/c1ccc(C(F)(F)F)cc1)C1CCN(C(=O)C2CCN(Cc3ccnc(N)c3)CC2)CC1 [Compound 226]
0.25 to 33 nM and 0.25 to 16 nM	CCO/N=C(/c1ccccn1)C1CCN(C(=O)C2CCN(Cc3ccnc(N)c3)CC2)CC1 [Compound 246A]
0.25 to 33 nM	Nc1cc(CN2CCC(C(=O)N3CCC(c4noc5cc(F)ccc45)CC3)CC2)ccn1 [Compound 23]
0.25 to 33 nM	CON=C(c1ccccc1Cl)C1CCN(C(=O)C2CCN(Cc3ccnc(N)c3)CC2)CC1 [Compound 220]
0.25 to 33 nM and 0.25 to 16 nM	CO/N=C(\c1ccccn1)C1CCN(C(=O)C2CCN([C@@H](C)c3ccnc(N)c3)CC2)CC1 [Compound 56]
0.25 to 16 nM	CO/N=C(/c1ccc(Cl)cc1)C1CCN(C(=O)C2CCN(Cc3ccncc3)CC2)CC1 [Compound 273]
0.25 to 33 nM	O=C(C1CCN(Cc2ccncc2)CC1)N1CCC(/C(=N\O)c2ccc(F)cc2)CC1 [Compound 275]
0.25 to 16 nM	CON=C(c1ccc(Cl)cc1)C1CCN(C(=O)C2CCN(Cc3ccnc(N)c3)CC2)CC1 [Compound 280]
0.25 to 33 nM	Nc1cc(CN2CCC(C(=O)N3CCC(c4noc5ncccc45)CC3)CC2)ccn1 [Compound 247]
